Each structure is given as a SMILES string. Where two headings read alike, the source gives them in different places.

Test [1] has as its target T1, human Cot catalytic domain (30-397 amino acids) (Homo sapiens, UniProt P41279).
T1 construct: Purified recombinant human Cot catalytic domain (30-397 amino acids) was purchased from Cama Biosciences; purchased Cama Biosciences (so in the source)
Put plainly: High Throughput Cot Biochemical Assay (KinEASE TR-FRET). The note with it: read-out: IC50 HTRF. In short, it runs like this:
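TR-FRET (KinEASE) read-out: Eu-labelled phospho-specific antibody binds XL665-tagged STK3 peptide (1 μM) phosphorylated by 5 nM human Cot kinase domain (residues 30-397). Reaction at 400 μM ATP, pH 7.0 MOPS buffer with 10 mM MgOAc, 1 mM DTT and 0.1% DMSO.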

The test system of test [2] is TNFα production in LPS-stimulated human monocytes. Put plainly: Cot Monocyte TNFα Cell Based Assay. Particulars: Homo sapiens, Monocyte, read-out: EC50 TNF. As to the method: Example 60: Cot Monocyte TNFα Cell Based Assay
The cell suspension was then plated at a density of 5,000 cells/well onto black 384 well Greiner clear bottom plates. Plates were pre-spotted with test compounds and serially diluted in DMSO where 200 nL/well were delivered using the Echo 550 acoustic liquid dispenser (Labcyte®) for a final DMSO concentration of 0.5%. Plated cells were treated with compound for 1 hour at 37° C. Cells were then stimulated with 50 pg/ml of LPS (Sigma) excluding outside columns of plate used for unstimulated cell control wells. Cells were incubated for an additional 4 hours at 37° C. Cells were then spun out of the media and 5 ul of sample were taken and analyzed for total TNFα content using the TR-FRET Human TNFα detection system (CisBio). This system utilizes two labeled antibodies (cryptate and XL665) that bind to two different epitopes of the TNFα molecule and produce FRET signal proportional to the concentration of TNFα in the sample. Detection antibodies are mixed 50:50 and 5 μL were dispensed into each well. Plates were covered with clear seals and incubated at room temp overnight. […] Percent of control was calculated as follows: % Control=100×(RatioSample−Ratio0% stimulation)/(Ratio100% Stimulation−Ratio0% Stimulation) where unstimulated cells (0% stimulation) were the negative control and stimulated cells (100% stimulation) were used as the positive control.

Setting [3] is: Cot KinEASE TR-FRET (HTRF) biochemical assay, 400 μM ATP.
Setting [4] is: TNFα in LPS-stimulated human monocytes.
The mark [5] stands for this setting: Cot KinEASE TR-FRET, 400 μM ATP.
Where [6] appears, read: LPS-stimulated human monocytes, TNFα TR-FRET.
Setting [7] is: Cot biochemical HTRF (KinEASE TR-FRET) assay.

T1 sequence (P41279 30-397): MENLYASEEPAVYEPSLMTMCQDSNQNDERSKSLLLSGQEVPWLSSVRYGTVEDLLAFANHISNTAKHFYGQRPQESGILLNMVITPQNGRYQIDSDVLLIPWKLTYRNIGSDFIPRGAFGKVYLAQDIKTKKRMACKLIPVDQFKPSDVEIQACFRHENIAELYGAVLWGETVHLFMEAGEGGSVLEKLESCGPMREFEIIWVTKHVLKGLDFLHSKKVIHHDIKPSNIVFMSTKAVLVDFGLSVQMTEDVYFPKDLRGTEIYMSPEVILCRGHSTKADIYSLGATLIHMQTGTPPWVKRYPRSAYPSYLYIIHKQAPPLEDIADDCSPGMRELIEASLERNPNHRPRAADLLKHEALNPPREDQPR

Regarding `[2H][C@](Nc1cc(Cl)c2ncc(C#N)c(N[C@@H](c3ccccc3)[C@@H]3C[C@H]3C#N)c2c1)(c1ccc(F)cc1)c1cn(C2CC2)nn1` [Example 111, 8-chloro-4-(((R)-((1R,2R)-2-cyanocyclopropyl) (phenyl)methyl)amino)-6-(((S)-(1-cyclopropyl-1H-1,2,3-triazol-4-yl)(4-fluorophenyl)methyl-d)amino)quinoline-3-carbonitrile], in test [1] (setting [3]), the IC50 worked out at 72 nM. For the same molecule, the EC50 in test [2] (setting [4]) came to 960 nM.
`Cc1nnc(C2(n3cc([C@@H](Nc4cc(Cl)c5ncc(C#N)c(NCC(C)(C)C)c5c4)c4ccccc4Cl)nn3)CC2)o1` [Example 1110, (S)-8-chloro-6-(((2-chlorophenyl)(1-(1-(5-methyl-1,3,4-oxadiazol-2-yl)cyclopropyl)-1H-1,2,3-triazol-4-yl)methyl)amino)-4-(neopentylamino)quinoline-3-carbonitrile]: in test [1] (setting [5]), the IC50 was determined as 26 nM. In test [2] (setting [6]), the EC50 stood at 79 nM.
For the molecule `[2H][C@](Nc1cc(C#N)c2ncc(C#N)c(N[C@H](CC#N)c3ccccc3)c2c1)(c1ccc(F)cc1)c1cn(C2CC2)nn1` [Example 202, 4-(((R)-2-cyano-1-phenylethyl)amino)-6-(((S)-(1-cyclopropyl-1H-1,2,3-triazol-4-yl)(4-fluorophenyl)methyl-d)amino)quinoline-3,8-dicarbonitrile], in test [1] (setting [3]), the IC50 amounted to 2 nM. Also, the EC50 in test [2] (setting [4]) turned out to be 44 nM.
Consider `CC(C)(C)N1CCC(n2cc([C@@H](Nc3cc(Cl)c4ncc(C#N)c(N[C@@H]5CCCOC5)c4c3)c3ccccc3)nn2)CC1` [Example 540, 6-(((S)-(1-(1-(tert-butyl)piperidin-4-yl)-1H-1,2,3-triazol-4-yl)(phenyl)methyl)amino)-8-chloro-4-(((R)-tetrahydro-2H-pyran-3-yl)amino) quinoline-3-carbonitrile], for which the IC50 in test [1] (setting [7]) stood at 404 nM. The EC50 in test [2] (setting [4]) turned out to be 5150 nM.
On to `COCCn1cc([C@@H](Nc2cc(Cl)c3ncc(C#N)c(Nc4ccc(F)c(Cl)c4)c3c2)c2ccccc2)nn1` [Example 795, (S)-8-chloro-4-((3-chloro-4-fluorophenyl)amino)-6-(((1-(2-methoxyethyl)-1H-1,2,3-triazol-4-yl)(phenyl)methyl)amino)quinoline-3-carbonitrile], for which the IC50 in test [1] (setting [7]) amounted to 13 nM. Further, the EC50 in test [2] (setting [4]) is 314 nM.
Turning to `[2H][C@](Nc1cc(Cl)c2ncc(C#N)c(N[C@H](CC)c3ccccc3)c2c1)(c1ccc(F)cc1)c1cn(C(C)(C)C)nn1` [Example 253], the half-maximal inhibitory concentration (IC50) in test [1] (setting [3]) was found to be 16 nM. Also, the 50% effective concentration (EC50) in test [2] (setting [4]) was determined as 214 nM.
Turning to `N#Cc1cnc2c(Cl)cc(N[C@@H](c3cccc(Cl)c3)c3cn(C4CC4)nn3)cc2c1Nc1cnc(F)c(F)c1` [Example 266, (S)-8-chloro-6-(((3-chlorophenyl)(1-cyclopropyl-1H-1,2,3-triazol-4-yl)methyl)amino)-4-((5,6-difluoropyridin-3-yl)amino)quinoline-3-carbonitrile], the half-inhibitory concentration (IC50) in test [1] (setting [3]) was found to be 16 nM. Further, the EC50 in test [2] (setting [4]) was 424 nM.
As for `[2H]C(Nc1cc(Cl)c2ncc(C#N)c(N[C@H]3CCCC[C@H]3NC(=O)OC(C)(C)C)c2c1)(c1ccc(F)cc1)c1cn(C2CC2)nn1` (stereo in doubt) [Example 231, tert-butyl ((1R,2S)-2-((8-chloro-3-cyano-6-(((S)-(1-cyclopropyl-1H-1,2,3-triazol-4-yl)(4-fluorophenyl)methyl-d)amino)quinolin-4-yl)amino)cyclohexyl)carbamate], the IC50 in test [1] (setting [3]) is over 10000 nM. Besides, the concentration giving a half-maximal response (EC50) in test [2] (setting [4]) is over 10000 nM.
Consider `CC(C)(C)CNc1c(C#N)cnc2c(Cl)cc(N[C@@H](c3ccc(F)cc3)c3cn(C45CC(C4)C5)nn3)cc12` [Example 1092, (S)-6-(((1-(bicyclo[1.1.1]pentan-1-yl)-1H-1,2,3-triazol-4-yl)(4-fluorophenyl)methyl)amino)-8-chloro-4-(neopentylamino)quinoline-3-carbonitrile], for which the IC50 in test [1] (setting [5]) came out at 20 nM. The EC50 in test [2] (setting [6]) was determined as 395 nM.
As for `[2H][C@](Nc1cc(Br)c2ncc(C#N)c(NCC(C)(C)C)c2c1)(c1ccc(Cl)cc1)c1cn(C2CC2)nn1` [Example 80, (S)-8-bromo-6-(((4-chlorophenyl)(1-cyclopropyl-1H-1,2,3-triazol-4-yl)methyl-d)amino)-4-(neopentylamino) quinoline-3-carbonitrile], the half-inhibitory concentration (IC50) in test [1] (setting [3]) was 31 nM. In addition, the concentration for a half-maximal effect (EC50) in test [2] (setting [4]) came out at 395 nM.
For `CC[C@@H](Nc1c(C#N)cnc2c(Cl)cc(N(CC)[C@@H](c3ccccc3)c3c[nH]nn3)cc12)c1ccccc1` [Example 481, 8-chloro-6-(ethyl((S)-phenyl(1H-1,2,3-triazol-4-yl)methyl)amino)-4-(((R)-1-phenylpropyl)amino) quinoline-3-carbonitrile], the half-maximal inhibitory concentration (IC50) in test [1] (setting [7]) turned out to be 298 nM. Further, the EC50 in test [2] (setting [4]) stood at 8800 nM.
In the same order, the values of `N#Cc1cnc2c(Cl)cc(N[C@@H](c3ccccc3)c3cn(C4C5CN(C6COC6)CC54)nn3)cc2c1Nc1ccc(F)c(Cl)c1` (stereo partly drawn) [Example 574, 8-chloro-4-((3-chloro-4-fluorophenyl)amino)-6-(((1S)-(1-(3-(oxetan-3-yl)-3-azabicyclo[3.1.0]hexan-6-yl)-1H-1,2,3-triazol-4-yl)(phenyl)methyl)amino) quinoline-3-carbonitrile] are 42 nM and 161 nM.
With `[2H][C@](Nc1cc(-c2cncnc2)c2ncc(C#N)c(N[C@H](CCC(=O)O)c3ccccc3)c2c1)(c1ccc(F)cc1)c1cn(C2CC2)nn1` [Example 950, (R)-4-((3-cyano-6-(((S)-(1-cyclopropyl-1H-1,2,3-triazol-4-yl)(4-fluorophenyl)methyl-d)amino)-8-(pyrimidin-5-yl)quinolin-4-yl)amino)-4-phenylbutanoic acid], the 50% inhibitory concentration (IC50) in test [1] (setting [5]) is at least 10000 nM. Moreover, the concentration giving a half-maximal response (EC50) in test [2] (setting [6]) was at least 1000 nM.
Consider `N#Cc1cnc2c(Cl)cc(N[C@@H](c3ccccc3)c3cn([C@@H]4CCN(C5COC5)C[C@H]4O)nn3)cc2c1Nc1ccc(F)c(Cl)c1` [Example 497, 8-chloro-4-((3-chloro-4-fluorophenyl)amino)-6-(((S)-(1-((3R,4R)-3-hydroxy-1-(oxetan-3-yl)piperidin-4-yl)-1H-1,2,3-triazol-yl)(phenyl)methyl)amino)quinoline-3-carbonitrile], for which, in test [1] (setting [7]), the IC50 was 26 nM. The half-maximal effective concentration (EC50) in test [2] (setting [4]) is 985 nM.
Regarding `CC(C)(C)N1CCC(n2cc([C@@H](Nc3cc(Cl)c4ncc(C#N)c(Nc5ccc(F)c(Cl)c5)c4c3)c3cccc(C(=O)N4CC(O)C4)c3)nn2)CC1` [Example 594, (S)-6-(((1-(1-(tert-butyl)piperidin-4-yl)-1H-1,2,3-triazol-4-yl)(3-(3-hydroxyazetidine-1-carbonyl)phenyl)methyl)amino)-8-chloro-4-((3-chloro-4-fluorophenyl)amino)quinoline-3-carbonitrile], the IC50 in test [1] (setting [7]) stood at 1 nM. Also, the concentration giving a half-maximal response (EC50) in test [2] (setting [4]) is 1720 nM.
Turning to `[2H]C(Nc1cc(Cl)c2ncc(C#N)c(N[C@H](CC)c3ccccc3)c2c1)(c1ccc(F)cc1)c1cn(C2CC2)cn1` (stereo partly drawn) [Example 354, 8-chloro-6-(((1-cyclopropyl-1H-imidazol-4-yl)(4-fluorophenyl)methyl-d)amino)-4-(((R)-1-phenylpropyl)amino) quinoline-3-carbonitrile], the concentration for half-maximal inhibition (IC50) in test [1] (setting [3]) came to 86 nM. Besides, the EC50 in test [2] (setting [4]) stood at 689 nM.
In the same order, the values of `[2H][C@](Nc1cc(Cl)c2ncc(C#N)c(NCC(C)(C)C)c2c1)(c1cccc(C#N)c1)c1cn(-c2cccnc2)nn1` [Example 327, (S)-8-chloro-6-(((3-cyanophenyl)(1-(pyridin-3-yl)-1H-1,2,3-triazo1-4-yl)methyl-d)amino)-4-(neopentylamino)quinoline-3-carbonitrile] are 4 nM and 166 nM.
Turning to `[2H][C@@](Nc1cc(C#N)c2ncc(C#N)c(NC3CCOCC3(C)C)c2c1)(c1cn(C2CC2)nn1)c1ccccc1Cl` (stereo partly drawn) [Example 128, 6-(((S)-(2-chlorophenyl) (1-cyclopropyl-1H-1,2,3-triazol-4-yl)methyl-d)amino)-4-((3,3-dimethyltetrahydro-2H-pyran-4-yl)amino)quinoline-3,8-dicarbonitrile], the concentration for half-maximal inhibition (IC50) in test [1] (setting [3]) came out at 2 nM. Besides, the EC50 in test [2] (setting [4]) came out at 54 nM.
As for `N#Cc1cnc2c(Cl)cc(N[C@@H](c3cccc(N4CCCS4(=O)=O)c3)c3c[nH]nn3)cc2c1Nc1ccc(Cl)c(Cl)c1F` [Example 528, (S)-8-chloro-4-((3,4-dichloro-2-fluorophenyl)amino)-6-(((3-(1,1-dioxidoisothiazolidin-2-yl)phenyl)(1H-1,2,3-triazol-4-yl)methyl)amino)quinoline-3-carbonitrile], the half-maximal inhibitory concentration (IC50) in test [1] (setting [7]) was determined as 54 nM. Moreover, the EC50 in test [2] (setting [4]) is 830 nM.
